Experimental data as given in patent US5705499A, “8-arylalkyl- and 8-arylheteroalkyl-5,11-dihydro-6H-dipyrido[3,2-B:2',3'-e][1]diazepines and their use in the treatment of HIV-1 infection” (Boehringer Ingelheim Pharmaceuticals, Inc., priority 1996, dated 1998).
pIC50: −log10 of the molar value.

Experiments:
RT (Y181C) = target: T1, RT (Y181C) (Human immunodeficiency virus type 1 group M subtype B, UniProt P04585, Y768C); assay type: biochemical; details: Y181C mutant HIV-1 RT
T1 construct: Heterodimeric RT was eluted using a descending gradient; made in house; host or cells: E. coli
Description: (§1) REVERSE TRANSCRIPT (RT) ASSAYS
(§2) Among the enzymes for which Human Immunodeficiency Virus (HIV-1) encodes is a reverse transcriptase (1), so-named because it transcribes a DNA copy from an RNA template. This activity can be quantitatively measured in a cell-free enzyme assay, which has been previously described (2), and is based upon the observation that reverse transcriptase is able to use a synthetic template [poly r(C) primed with oligo d(G)] to transcribe a radio-labelled, acid-precipitable DNA strand utilizing ^3 H-dGTP as a substrate. The assay described below utilizes the wild type (WT) enzyme, which is the predominant form of the enzyme observed in patients infected with HIV-1.
Purification of recombinant reverse transcriptase was performed using a combination of methods previously described (5). This procedure is summarized briefly as follows: Bacteria were pelleted E. Coli containing RT-1 wt or RT-1 (Y181 C) were suspended in 50 mM MES, pH 6.0 containing 10% glycerol, lysed in a french press, centrifuged, and the supernates discarded. […]
The 2.4× concentrated stock reaction mixture is aliquoted and stored at -20° C. […] The filters are then dried, placed into plastic bags with Betaplate scintillation cocktail (Pharmacia/LKB) and counted in the Betaplate counter (Pharmacia/LKB). […]

RT (WT) [1] = target: T2, RT (WT) (Human immunodeficiency virus type 1 group M subtype B, UniProt P04585); details: same in vitro tests used for the compounds of the invention; cited from earlier work
AIDS = details: cited from earlier work
RT (WT) [2] = target: T2, RT (WT); experiment: Reverse Transcriptase (RT) Assay, wild type; assay type: biochemical, HIV-1; parameters: Heterodimeric RT was eluted using a descending gradient; made in house; host or cells: E. coli (clone pKRT2, obtained from Yale University); details: read-out: RT (WT) Assay % inh. (1 μM)
Description: as §1, §2
The HIV-1 RT expression clone, pKRT2, was obtained from Yale University (3). An overnight culture, grown in 2×YT medium (37° C., 225 rpm) (4), supplemented with 100 μg/mL ampicillin for positive selection was used to inoculate the 2×YT medium. The culture is incubated (37° C., 225 rpm) until it reaches an OD600 of 0.6-0.9. At that time the repressor inhibitor IPTG (isopropyl β-D-thiogalactopyranoside) is added to 0.5 mM, and the mixture is incubated for 2 additional hours.
Purification of recombinant reverse transcriptase was performed using a combination of methods previously described (5). This procedure is summarized briefly as follows: Bacteria were pelleted E. Coli containing RT-1 wt or RT-1 (Y181 C) were suspended in 50 mM MES, pH 6.0 containing 10% glycerol, lysed in a french press, centrifuged, and the supernates discarded. Lysate pellets were extracted with buffer A (50 mM MES, pH 6.0, 100 mM KCl, 50 mM KPi, 10% glycerol, 0.02% hexyl β-glucoside), and re-centrifuged; nucleic acid in supernates was precipitated with 0.1% polyethylenimine. […] Bound RT was eluted with a gradient of 0 to 1.0M (NH4)2 SO4 in buffer B. Heparin-Sepharose fractions containing RT were concentrated (Amicon YM-30 membrane), combined with equal volumes of 2.0M (NH4)2 SO4 in buffer B and injected onto a 21.5×150 mm TSK Phenyl-5PW HIC HPLC column (Phenomenex). Heterodimeric RT was eluted using a descending gradient of 1.0M to 0M (NH4)2 SO4 in buffer B, concentrated, and stored at 4° C.
The 2.4× concentrated stock reaction mixture is aliquoted and stored at -20° C. […] This enzyme assay has been adapted to a 96 well microtiter plate system, and has been previously described (6). Tris buffer (50 mM, pH 7.8), vehicle (solvent diluted to match the compound dilution), or compounds in vehicle are dispensed into 96-well microtiter plates (10 μL/well; 3 wells/compound). The HIV-1 RT enzyme is thawed, diluted in 50 mM Tris pH 7.8 containing 0.05% Chaps to give 1.5 nM enzyme and 25 μL are dispensed per well. Ten μL of 0.5M EDTA are added to the first three wells of the microtiter plate. EDTA chelates the Mg^++ present and prevents reverse transcription. This group serves as background polymerization which is subtracted from all other groups. Twenty-five μl of the 2.4× reaction mixture are added to all wells and the assay is allowed to incubate at room temperature for 30 minutes. The assay is terminated by precipitating the DNA in each well with 60μL of sodium pyrophosphate (2% w/v) in 10% trichloracetic acid (TCA) (10% w/v). The microtiter plate is incubated for 15 minutes at 4° C. and the precipitate is harvested onto #30 glass fiber paper (Schleicher & Schuell) using a Tomtech 96-well harvester. The filters are then dried, placed into plastic bags with Betaplate scintillation cocktail (Pharmacia/LKB) and counted in the Betaplate counter (Pharmacia/LKB).
The calculation for percent inhibition is as follows: [formula]

[3] = system: HTLV-IIIB strain of HIV-1 (in C8166-45 cells); experiment: Syncytia (human T-cell culture) Assay; assay type: cell-based; details: Human immunodeficiency virus 1, T-cell; C8166-45 cells, HTLV-IIIB strain, 72 hours; read-out: Syncytia Assay IC50
Protocol: Formation of syncytia is a feature of in vitro cultures of CD4+ T-cells infected with HIV-1. In this assay (1), T-cells are treated with a putative replication inhibiting compound and then infected with HIV-1. After incubation, the culture is checked for the formation of syncytia. The absence or reduction in the number of syncytia is used as a measure of the test compound's ability to inhibit HIV replication.
The target cells, designated C8166-45, are a fusion of umbilical blood lymphocytes and T-cells from leukemia-lymphoma patients and are established at an initial density of 5×10^4 per 90 μl in RPMI 1640 (+10% fetal bovine serum) culture medium in 96 well flat bottom plates. A selected amount of test compound, dissolved in DMSO, is included. 50 TCID50 's (the dose that results in induced effect in 50% of test cultures) of the HTLV-IIIB strain of HIV-1 (3) are inoculated into each culture. Control cultures receive compound or virus only.
The cultures are incubated for 72 hours (4), at 37° C. with 5% carbon dioxide, and then visually examined for the frequency and distribution of virus-induced giant cell syncytia. The percent inhibition by the test compound is determined by comparison with control values.

C8166-45 cell line = experiment: MTT Assay (cytotoxicity); assay type: cell-based, human; details: C8166-45 cells, five days

Row | Compound | inhibition at 1 µM (RT (WT) [2]) [%] | pIC50 [3] | MTT Assay CC30 (C8166-45 cell line) [nM] | also measured
1 | 2-Chloro-5,11-dihydro-11-ethyl-8-[2-(3-methylsulfonamidophenyl)ethyl]-6H-dipyrido[3,2-b:2',3'-e][1,4]diazepin-6-one [Example 25] | – | – | – | RT (Y181C) Assay % inh. (1 μM) (RT (Y181C)): 70%
2 | 5,11-Dihydro-11-ethyl-5-methyl-8-phenylethynyl-6H-dipyrido[3,2-b:2',3'-e][1,4]diazepin-6-one [Example 48] | – | – | – | RT (Y181C) Assay % inh. (1 μM) (RT (Y181C)): 17%
3 | Cc1ccnc2c1NC(=O)c1cccnc1N2C1CC1 [11-cyclopropyl-5,11-dihydro-4-methyl-6H-dipyrido[3,2-b;2',3', -e][1,4]diazepine-6-one] | – | – | – | active in the same in vitro tests (RT (WT) [1]): active in the same in vitro tests; active in the treatment of AIDS in human tests (AIDS): active in the treatment of AIDS in human tests
4 | CCN1c2ncc(/C=C/c3ccncc3)cc2C(=O)N(C)c2cccnc21 [Example 1, 5,11-Dihydro-11-ethyl-5-methyl-8-[trans-2-(pyrid-4-yl)ethen-1-yl]-6H H-dipyridol[3,2-b:2',3'-e][1,4]diazepin-6-one] | 32 | – | – | –
5 | CCN1c2ncc(CCc3ccncc3)cc2C(=O)N(C)c2cccnc21 [Example 2, 5,11-Dihydro-11-ethyl-5-methyl-8-[2-(pyrid-4-yl)ethyl]-6H-dipyrido[3,2-b:2',3'-e][1,4]diazepin-6-one] | 95 | 7.70 | > 60000 | –
6 | CCN1c2ncc(CCc3ccncc3)cc2C(=O)N(C)c2ccc(Cl)nc21 [Example 3, 2-Chloro-5,11-dihydro-11ethyl-5methyl-8-[2-(pyrid-4-yl)ethyl]-6H-dipyrido-[3,2-b:2',3'-e][1,4]diazepin-6-one] | 95 | 8.00 | 70000 | –
7 | CCN1c2ncc(CCc3ccncc3)cc2C(=O)N(C)c2ccc(C#N)nc21 [Example 4, 2-Cyano-5,11-dihydro-11-ethyl-8-[2-(4-pyridyl)ethyl]-5-methyl-6H-dipyrido-[3,2-b:2',3'-e][1,4]diazepin-6-one] | 82 | – | – | –
8 | CCN1c2ncc(CCc3ccncc3)cc2C(=O)N(C)c2ccc(N)nc21 [Example 5, 2-Amino-5,11-dihydro-11-ethyl-8-[2-(4-pyridil)ethyl]-5-methyl-6H -dipyrido[3,2-b:2',3'-e][1,4]diazepin-6-one] | 68 | – | – | –
9 | CCN1c2ncc(CCc3ccncc3)cc2C(=O)N(C)c2ccc(O)nc21 [Example 6, 5,11-Dihydro-11-ethyl-2-hydroxy-8-[2-(4-pyridil)ethyl]5-methyl-6H-dipyrido[3,2-b:2',3'-e][1,4]diazepin-6-one] | 21 | – | > 256000 | –
10 | CCN1c2ncc(CCOc3ccncc3)cc2C(=O)N(C)c2ccc(Cl)nc21 [Example 127, 2-chloro-5,11-dihydro-11-ethyl-5-methyl-8-[2-(pyrid-4-yloxy)ethyl]-6H-dipyrido[3,2-b:2',3'-e][1,4]diazepin-6-one] | – | 8.52 | 55000 | –
